Assay results: patent publication US20120121574A1, “ANTIMICROBIAL, ANTIVIRAL, ANTICANCER AND IMMUNOMODULATORY PEPTIDES AND USES THEREFORE” (priority 2010, published 2012)
Like-named read-outs stand apart in the source and are kept apart here. Where no end group is shown, it is not given here.

Columns and labels:
[1] = test system: B16F10-Nex2 melanoma cells; test: melanoma cell viability by Trypan Blue exclusion; settings: 1 mM to 0.05 mM, 12 hr
Experimental: (§1) In vitro activity of N10K against B16F10-Nex2, SKme128 and SKme125 melanoma cells. Peptide N10K and the relative scramble peptide (SP) used as negative control were diluted from 1 mM to 0.05 mM in RPMI with 10% FCS and incubated with B16F10-Nex2, SKme128 and SKme125 cells (5×10^3 cells/well) in 100 microliters per well for 12 hr at 37° C. Each peptide was tested in triplicate. After 12 hr, the cytotoxic activities of the peptides were determined by measuring cell viability by Trypan Blue exclusion. A 50% inhibition of cell growth was taken as a comparative index of cytotoxicity (EC50).
as §1, with “T11F” for “N10K”, “microL” for “microliters”, “37 u°” for “37°”

[2] = test system: C. albicans SC5314 strain
Experimental: In vitro activity of N10K against C. albicans SC5314 strain. The candidacidal activity of N10K peptide against C. albicans was assessed by a conventional colony forming unit (CFU) assay as previously described (Polonelli et al., 2003; Manfredi et al., 2005). Briefly, cells of C. albicans SC5314 were incubated at 37° C. for 6 hours (hr) in the presence of N10K at the concentration indicated of 20, 12.5 or 6.25 microgram/ml, or in distilled water as control (C). After incubation, cell suspensions were plated on Sabouraud dextrose agar and incubated at 30° C. for 48 hours when CFU were counted (** P<0.01 for N10K treated versus untreated cells, by t test). […]
The alanine-substituted derivatives (asd), defined according to the position held by the alanine-substituted aminoacid, were tested against C. albicans by a conventional colony forming unit (CFU) as previously described (Polonelli et al., 2003). Briefly, cells of C. albicans SC5314 were incubated at 37° C. for 6 hours in the presence of N10K or N10K asd at different scalar concentrations or distilled water as control. After incubation, cell suspensions were plated on Sabouraud dextrose agar and incubated at 30° C. for 48 hours when CFU were counted. Based on several independent replications, the EC50 value of each peptide was calculated by nonlinear regression analysis using Graph Pad Prism 4.01 software, San Diego, Calif., USA. […]
In vitro microbicidal activity of N10K derivative with 2 amino acid substitutions, or 80% sequence identity with native N10K, namely peptide Seq Id. No. 25 was tested against Candida albicans SC5314 as determined by Colony Forming Unit assay.

[3] = test system: C. neoformans 6995 strain; settings: 6 hours 37° C.; multiple experiments
Experimental: After the incubation period, the cell suspensions have been plated on Sabouraud dextrose agar, then incubated at 30° C. and observed for CFU enumeration after 48 hours.

[4] = test system: U937 cell line; test: annexine-V/propidium iodide flow cytometry on U937; settings: annexine-V/propidium iodide staining
[5] = test system: PBMC; test: AlamarBlue cell viability assay on PBMC; settings: 1-20 micrograms/ml concentration range, 24 hours
Experimental: In vitro activity of N10K against HIV-1. PBMC from healthy donors were cultured at the concentration of 2×10^6 cells/ml in 96 wells plates with RPMI 1640 supplemented with 10% FBS, 1% glutamine and 20 UI/ml rIL-2 for 24 hr before treatment with N10K, then the peptide was added at increasing concentrations (1, 10 and 20 micrograms/ml) for 24 hours. AlamarBlue was added (10% v/v) and incubated for 4 hours at 37° C. Cells viability was determined by the AlamarBlue Assay (Biosource International, Inc.). The absorbance was measured with an ELISA plate reader (Tecan Sunrise Absorbance Reader) at the double wavelength of 570/595 nm. AlamarBlue added to the complete RPMI1640 medium was used as blank. […] To verify the anti-HIV-1 activity, an in vitro infection applying two different experimental approaches was performed. PBMC from 3 healthy donors were purified by Ficoll gradient centrifugation, mixed in pool and cultured in RPMI 1640 medium (10% FBS, 1% glutamine and 1% penicillin streptomycin). Before infection cells were stimulated for 24 hours with PHA (5 micrograms/ml) and after with rIL-2 (20 UI/ml). […] Viral replication was evaluated measuring the concentration of the p24 antigen in the culture supernatants by the HIV p24 ELISA Ultrasensitive detection kit (PerkinElmer, Inc.). […]

## NQVSLTCLVK [Peptide N10K, N Q V S L T C L V K]
[1]
  cytotoxic activity (cell viability): showed activity
[2]; 6 hours 37° C., several independent replications, peptide batches of Examples I and II
  EC50: 10 µM
[2]; SC5314, 6 h
  EC50: 1 µM
[3]
  EC50: 5.16 µM
[4]
  induction of apoptotic/necrotic effects: exclude the induction of apoptotic/necrotic effects
[5]
  cytotoxicity for PBMC (cell viability): not to be cytotoxic
